# Test results: the NIST ThermoML archive (doi:10.1021/acs.jced.8b00807)
# Numbers after ± are expanded uncertainties.
# Assay: Boiling temperature at pressure P
# Details: 101.3 kPa; Liquid; Ebulliometric method (Recirculating still)
row,Boiling temperature at pressure P,Compound
1,116.40 ± 0.2 °C,CC(=O)OCC(C)C [2-methylpropyl ethanoate]
2,142.00 ± 0.2 °C,CC(=O)OCCC(C)C [3-methylbutyl ethanoate]
3,57.1 ± 0.2 °C,COC(C)=O [methyl ethanoate]

row,Compound,Boiling temperature at pressure P
1,"Cc1ccc(C)cc1 [1,4-dimethylbenzene]",138.34 ± 0.2 °C
